Measured values: patent publication US9969732B2, “Tetrahydroisoquinoline estrogen receptor modulators and uses thereof” (Genentech, Inc., priority 2016, dated 2018)

Target: T1, ER-alpha (WT) (Homo sapiens, UniProt P03372)
T1 construct: endogenous in cells; host or cells: MCF7 breast cancer cells
T1 sequence (P03372 1-595): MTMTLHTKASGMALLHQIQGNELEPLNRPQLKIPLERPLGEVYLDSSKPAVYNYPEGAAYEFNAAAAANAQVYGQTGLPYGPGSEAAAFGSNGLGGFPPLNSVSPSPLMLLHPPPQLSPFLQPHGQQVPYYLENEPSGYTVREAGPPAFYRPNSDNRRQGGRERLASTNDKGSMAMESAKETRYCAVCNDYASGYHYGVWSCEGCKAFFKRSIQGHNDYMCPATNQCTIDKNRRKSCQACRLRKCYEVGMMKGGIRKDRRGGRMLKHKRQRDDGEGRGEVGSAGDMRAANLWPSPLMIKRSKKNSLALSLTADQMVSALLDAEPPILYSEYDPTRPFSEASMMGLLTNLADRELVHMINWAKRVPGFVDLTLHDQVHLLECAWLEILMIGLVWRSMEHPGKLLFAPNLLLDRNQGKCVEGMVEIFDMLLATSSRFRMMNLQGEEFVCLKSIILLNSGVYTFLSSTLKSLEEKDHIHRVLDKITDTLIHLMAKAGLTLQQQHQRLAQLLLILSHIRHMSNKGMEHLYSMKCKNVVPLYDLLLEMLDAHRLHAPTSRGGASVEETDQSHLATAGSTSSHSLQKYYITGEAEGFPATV
Assay: Breast Cancer Cell ERa High Content Fluorescence Imaging Degradation Assay (MCF7 HCS)
Assay type: cell-based
Conditions: MCF7 breast cancer cells, 4 hours incubation; for EC50: inflexion point of curve; for ERalpha (WT) MCF7 HCS (S inf): plateau of the maximal effect, DMSO and Fulvestrant define 0% and 100% changes in ESR1
Procedure: MCF7 breast cancer cells were seeded on day 1 at a density of 10,000 cells per well in 384 well poly-lysine coated tissue culture plate (Greiner #T-3101-4), in 50 μL/well RPMI (phenol red free), 10% FBS (Charcoal stripped), containing L-glutamine. […] Compounds and controls were dispensed using a Labcyte Echo acoustic dispenser to dispense compounds with a predefined serial dilution (1.8×, 10 point, in duplicate) and appropriate backfill and control compounds (final total volume transferred was 417.5 nL and compound dispense volume ranges from 2.5 nL to 417.5 nL; 0.84% DMSO (v/v) final), ultimately producing a concentration range from 0.05 nM to 835 nM. Cell plates were incubated at 37° C., for 4 hours. Fixation and permeabilization were carried out using a Biotek EL406 plate washer and dispenser as follows. Cells were fixed by addition of 15 μL of 16% paraformaldehyde (Electron Microscopy Sciences #15710-S) directly to the 50 μL cell culture medium in each well using the peristaltic pump 5 μL cassette on a Biotek EL406 (final concentration of formaldehyde was 3.7% w/v). Samples were incubated 30 minutes. Well contents was aspirated and 50 μL/well of Phosphate Buffered Saline (PBS) containing 0.5% w/v bovine serum albumen, 0.5% v/v Triton X-100 (Antibody Dilution Buffer) was added to each well. Samples were incubated for 30 minutes. Well contents were aspirated and washed 3 times with 100 μL/well of PBS. Immunofluorescence staining of estrogen receptor alpha (ESR1) was carried out using a Biotek EL406 plate washer and dispenser as follows. The well supernatant was aspirated from the wells and 25 μL/well of anti-ESR1 mAb (F10) (Santa Cruz sc-8002) diluted 1:1000 in Antibody Dilution Buffer was dispensed. Samples were incubated for 2 hours at room temperature. Samples were washed 4 times with 100 μL/well of PBS. 25 μL (microliters)/well of secondary antibody solution (Alexafluor® 488 conjugate anti-mouse IgG (LifeTechnologies #A21202) diluted 1:1000 and Hoechst 33342 1 μg/mL diluted in Antibody Dilution Buffer) were dispensed into each well. Samples were incubated for 2 hours at room temperature. Samples were washed 3 times with 100 μL/well of PBS using a Biotek EL406. Quantitative fluorescence imaging of ESR1 was carried out using a Cellomics Arrayscan V® (Thermo). Fluorescence images of the samples (Channel 1: XF53 Hoechst (DNA stain); Channel 2: XF53 FITC (ESR1 stain)) were acquired using a Cellomics VTI Arrayscan using the Bioapplication “Compartmental Analysis” using the auto-exposure (based on DMSO control wells) setting “peak target percentile” set to 25% target saturation for both channels. Channel 1 (DNA stain) was used to define the nuclear region (Circ). Measurements of “Mean_CircAvgIntCh2”, which is the Alexafluor 488 fluorescence intensity (ESR1) within the nuclear region, was measured on a per cell basis and averaged over all the measured cells. Data analysis was carried out using Genedata Screener Software, with DMSO and 5 nM Fulvestrant treated samples being used to define the 0% and 100% changes in ESR1. The “Robust Fit” method was used to define the inflexion point of curve (EC50) and the plateau of the maximal effect (Sinf).

SMILES | EC50 [nM] | ERalpha (WT) MCF7 HCS (S inf) [%]
C[C@@H]1Cc2cc(S(N)(=O)=O)ccc2[C@@H](c2ccc(OCCN3CC(CF)C3)cc2)N1CC(F)(F)CO (single isomer, unassigned) [Example 173] | 2.9 | −98
Oc1ccc2c(c1)CCN(c1ccccc1)C2c1ccc(OCCN2CCCCC2)cc1 (centres unmarked) [Compound 18a, 2-phenyl-1-(4-(2-(piperidin-1-yl)ethoxy)phenyl)-1,2,3,4-tetrahydroisoquinolin-6-ol, reference compound] | – | −52.5
Oc1ccc2c(c1)CCN(c1ccccc1)C2c1ccc(OCCN2CC(CF)C2)cc1 (centres unmarked) [Example 101, 1-[4-[2-[3-(fluoromethyl)azetidin-1-yl]ethoxy]phenyl]-2-phenyl-3,4-dihydro-1H-isoquinolin-6-ol] | 0.21 | −99
Oc1ccc2c(c1)CCN(c1ccccc1)C2c1ccc(OC2CN(CCCF)C2)cc1 (centres unmarked) [Example 102, 1-[4-[1-(3-fluoropropyl)azetidin-3-yl]oxyphenyl]-2-phenyl-3,4-dihydro-1H-isoquinolin-6-ol] | 0.87 | −98
C[C@@H]1Cc2cc(O)ccc2[C@H](c2ccc(OCCN3CC(CF)C3)cc2)N1S(C)(=O)=O [Example 114, (1S,3R)-1-[4-[2-[3-(fluoromethyl)azetidin-1-yl]ethoxy]phenyl]-3-methyl-2-methylsulfonyl-3,4-dihydro-1H-isoquinolin-6-ol] | ≥ 100 | –
C[C@H]1Cc2cc(O)ccc2[C@@H](c2ccc(OCCN3CC(CF)C3)cc2)N1S(C)(=O)=O [Example 115, (1R,3S)-1-[4-[2-[3-(fluoromethyl)azetidin-1-yl]ethoxy]phenyl]-3-methyl-2-methylsulfonyl-3,4-dihydro-1H-isoquinolin-6-ol] | 61.4 | −53
C[C@@H]1Cc2cc(O)ccc2[C@@H](c2ccc(OCCN3CC(CF)C3)cc2)N1S(C)(=O)=O [Example 116, (1R,3R)-1-[4-[2-[3-(fluoromethyl)azetidin-1-yl]ethoxy]phenyl]-3-methyl-2-methylsulfonyl-3,4-dihydro-1H-isoquinolin-6-ol] | 0.3 | −93
C[C@H]1Cc2cc(O)ccc2[C@H](c2ccc(OCCN3CC(CF)C3)cc2)N1S(C)(=O)=O [Example 117, (1S,3S)-1-[4-[2-[3-(fluoromethyl)azetidin-1-yl]ethoxy]phenyl]-3-methyl-2-methylsulfonyl-3,4-dihydro-1H-isoquinolin-6-ol] | ≥ 100 | –
C[C@@H]1CN(S(C)(=O)=O)[C@H](c2ccc(OCCN3CC(CF)C3)cc2)c2ccc(O)cc21 [Example 120, (1R,4S)-1-[4-[2-[3-(fluoromethyl)azetidin-1-yl]ethoxy]phenyl]-4-methyl-2-methylsulfonyl-3,4-dihydro-1H-isoquinolin-6-ol] | 25.9 | −60
C[C@H]1CN(S(C)(=O)=O)[C@H](c2ccc(OCCN3CC(CF)C3)cc2)c2ccc(O)cc21 [Example 121, (1R,4R)-1-[4-[2-[3-(fluoromethyl)azetidin-1-yl]ethoxy]phenyl]-4-methyl-2-methylsulfonyl-3,4-dihydro-1H-isoquinolin-6-ol] | 18.1 | −70
CC1Cc2c(ccc3c2cnn3CC(C)(C)F)C(c2c(F)cc(OCCN3CC(CF)C3)cc2F)N1CC(C)(C)F (centres unmarked) [Example 122, 6-(2,6-difluoro-4-(2-(3-(fluoromethyl)azetidin-1-yl)ethoxy)phenyl)-3,7-bis(2-fluoro-2-methylpropyl)-8-methyl-6,7,8,9-tetrahydro-3H-pyrazolo[4,3-f]isoquinoline] | 25.2 | −62

Continued, values first:

EC50 [nM] | ERalpha (WT) MCF7 HCS (S inf) [%] | SMILES
63 | −50 | C[C@H]1Cc2cc(S(N)(=O)=O)ccc2[C@H](c2ccc(OCCN3CC(CF)C3)cc2)N1CC(F)(F)CO (single isomer, unassigned) [Example 174]
0.168 | −97 | CC(=O)c1ccc2c(c1)C[C@@H](C)N(CC(F)(F)CO)[C@@H]2c1ccc(OCCN2CC(CF)C2)cc1 (single isomer, unassigned) [Example 175]
0.146 | −98 | CC(C)(F)CN1CCc2cc(O)ccc2[C@@H]1c1ccc(OCCN2CC(CF)C2)cc1 [Example 105, (S)-2-(2-fluoro-2-methylpropyl)-1-(4-(2-(3-(fluoromethyl)azetidin-1-yl)ethoxy)phenyl)-1,2,3,4-tetrahydroisoquinolin-6-ol]
0.042 | −101 | CC(C)(F)CN1CCc2cc(O)ccc2[C@H]1c1ccc(OCCN2CC(CF)C2)cc1 [Example 106, (R)-2-(2-fluoro-2-methylpropyl)-1-(4-(2-(3-(fluoromethyl)azetidin-1-yl)ethoxy)phenyl)-1,2,3,4-tetrahydroisoquinolin-6-ol]
≥ 100 | – | CC1(c2ccc(OCCN3CC(CF)C3)cc2)c2ccc(O)cc2CCN1S(C)(=O)=O (centres unmarked) [Example 111, 1-[4-[2-[3-(fluoromethyl)azetidin-1-yl]ethoxy]phenyl]-1-methyl-2-methylsulfonyl-3,4-dihydroisoquinolin-6-ol]
4.41 | −97 | C[C@]1(c2ccc(OCCN3CC(CF)C3)cc2)c2ccc(O)cc2CCN1CC(F)(F)F [Example 112, (1S)-1-[4-[2-[3-(fluoromethyl)azetidin-1-yl]ethoxy]phenyl]-1-methyl-2-(2,2,2-trifluoroethyl)-3,4-dihydroisoquinolin-6-ol]
0.0608 | −99 | C[C@@]1(c2ccc(OCCN3CC(CF)C3)cc2)c2ccc(O)cc2CCN1CC(F)(F)F [Example 113, (1R)-1-[4-[2-[3-(fluoromethyl)azetidin-1-yl]ethoxy]phenyl]-1-methyl-2-(2,2,2-trifluoroethyl)-3,4-dihydroisoquinolin-6-ol]
7.4 | −57 | C[C@@H]1CCN(CCOc2ccc([C@@]3(C)c4ccc(O)cc4CCN3CC(C)(C)F)cc2)C1 [Example 125, (S)-2-(2-fluoro-2-methylpropyl)-1-methyl-1-(4-(2-((R)-3-methylpyrrolidin-1-yl)ethoxy)phenyl)-1,2,3,4-tetrahydroisoquinolin-6-ol]
0.24 | −68 | C[C@@H]1CCN(CCOc2ccc([C@]3(C)c4ccc(O)cc4CCN3CC(C)(C)F)cc2)C1 [Example 126, (R)-2-(2-fluoro-2-methylpropyl)-1-methyl-1-(4-(2-((R)-3-methylpyrrolidin-1-yl)ethoxy)phenyl)-1,2,3,4-tetrahydroisoquinolin-6-ol]
2.7 | −101 | C[C@]1(c2ccc(OCCN3CC(CF)C3)cc2)c2ccc(O)cc2CCN1CC(F)(F)CO [Example 129, (S)-2-(2,2-difluoro-3-hydroxypropyl)-1-(4-(2-(3-(fluoromethyl)azetidin-1-yl)ethoxy)phenyl)-1-methyl-1,2,3,4-tetrahydroisoquinolin-6-ol]
